# Results reported in patent US8871208B2, “11-β-hydroxysteroid dehydrogenase type 1 (11β-HSD1) inhibitors and uses thereof” (AbbVie Inc., priority 2009, dated 2014).
# Marks after values point to notes of the source that are not given here.
# Columns and labels:
# [1] = test system: P1NP (N-terminal propeptide of type I procollagen); assay: Mouse model of glucocorticoid-induced osteoporosis: plasma P1NP; format: in vivo; settings: mice; for % Inhibition of P1NP, (+) Inhibitor: diet with 873 mg Compound B/kg; for % Inhibition of P1NP, (−) Inhibitor: control diet
# Text: (§1) Purpose: The purpose of this experiment was to determine if inhibiting 11β-HSD-1 in mice results in protection from prednisolone-induced bone loss over a 28-day period, while maintaining the same anti-inflammatory efficacy against lipopolysaccharide(LPS)-induced TNFα.
# (§2) Animals: Female Swiss Webster mice from Charles River Laboratories (CFW mice) were used in this study. Mice were 10 weeks old at the start of the study. Two identical prednisolone dose responses were run with a vehicle control (n=12), 5, 1.5, and 0.5 mg/kg dosed for 28 days (n=8 each), and 1.5 mg/kg dosed for 27 days (n=8, to determine if prednisolone needed to be on board to affect tumor necrosis factor-alpha(TNFα), procollagen type 1 N-terminal propeptide(P1NP), and Osteocalcin). […] The total number of animals used was 88.
# (§3) Experimental Design: All animals were placed on the control diet (Research Diets Rodent Diet with 60 kcal % Fat: D12492i) upon arrival. […] Also on this day, animals were weighed for baselines and ear-tagged for identification. On day 1 of the study, all animals were injected intraperitoneally (i.p.) with 10 mg/kg of calcein (Sigma #C0875) in 2% sodium bicarbonate (Sigma #S6014, dissolved in deionized water). […] On day 27, 4 animals from each vehicle control group were challenged with 5 mg/kg of 11-dehydrocorticosterone (11-DHC [Steraloids #Q3690-000]) p.o., and plasma was collected 30 minutes later for corticosterone analysis by mass spec. […] Thirty minutes later, all groups were challenged with 0.1 mg/kg of LPS (Sigma #L4130) to induce TNFα. […] Right leg bones, left leg bones, and the spinal columns of all mice were collected and stored as follows:
# N-terminal propeptide of type I procollagen (PINP) was measured using the Rat/Mouse PINP EIA kit from Immunodiagnostic Systems. The protocol was followed as outlined in the kit, except for that sample dilutions were made in a separate plate instead of directly in the ELISA plate. Samples were read using a Molecular Devices Spectra Max 190 plate reader and Soft Max Pro 5.2 software.
# Osteocalcin = assay: Mouse model of glucocorticoid-induced osteoporosis: plasma osteocalcin; format: in vivo; settings: mice; for % Inhibition of Osteocalcin, (+) Inhibitor: diet with Compound B; for % Inhibition of Osteocalcin, (−) Inhibitor: control diet
# Text: as §1, §2, §3
# Osteocalcin was measured using the Millipore Milliplex Mouse Osteocalcin Single-Plex Kit. The protocol was followed exactly as outlined in the kit. Samples were read on a BioRad Bio-Plex System, model # Luminex 100 and Bio-Plex Manager 4.1.1 software.
# TNFα = assay: Mouse model of glucocorticoid-induced osteoporosis: LPS-induced TNFα; format: in vivo; settings: mice, LPS 0.1 mg/kg challenge; for % Inhibition of TNFα, (+) Inhibitor: diet with Compound B; for % Inhibition of TNFα, (−) Inhibitor: control diet
# Text: as §1, §2, §3
# TNFα was measured using the Mouse […] Quantikine ELISA kit from R&D Systems. The protocol was followed as outlined in the kit. Samples were read using a Molecular Devices Spectra Max 250 plate reader and Soft Max Pro 4.8 software.
# [2] = test system: Trabecular bone at Femoral Metaphysis; assay: Mouse model of glucocorticoid-induced osteoporosis: femur histomorphometry; format: in vivo; settings: mice; for % Inhibition of MAR, (+) Inhibitor / % Increase in BFR/BV, (+) Inhibitor / % Increase in dLS/BS, (+) Inhibitor: diet with Compound B; for % Increase in dLS/BS, (−) Inhibitor / % Inhibition of BFR/BV, (−) Inhibitor / % Inhibition of MAR, (−) Inhibitor: control diet
# Text: as §1, §2, §3
# Left leg bones were removed, cleaned, and cut identically to the right leg bones. However, left legs were separated at the knee joint by carefully teasing apart with a scalpel.
# Femurs were fixed in 4% paraformaldehyde for 48 hours, and transferred to 30% sucrose for 24 hours before embedding in a CMC (carboxymethylcellulose) block. Blocks were frozen in liquid nitrogen-cooled hexanes (−60° C. or colder) for 3-5 minutes, and stored at −80° C. Femurs were then sectioned on a cryomicrotome.
# Bone was measured from 8-10 fields per femur, with each field being 400×500 microns in size. All dynamic measurement calculations were made from scoring the second and third fluorochrome labels, which were administered 11 days apart. OsteoMeasure software was used to obtain all values.
# Bone formation rate/bone volume (BFR/BV) refers to the volume of new bone formed per unit of time, and is measured as a percent per day. BFR is the most significant measure of bone formation.
# Mineral apposition rate (MAR) refers to the distance between two fluorochrome labels divided by the number of days between label administration, and is indicative of osteoblastic activity.
# Double labeled surface/bone surface (dLS/BS) refers to the percentage of trabecular bone surface which is double-labeled, and is another readout indicative of bone formation.
# plasma osteocalcin [3] = assay: Study A: prednisolone-induced osteocalcin reduction in rats; format: in vivo; settings: prednisolone 10 mg/kg po, 4 hour time point
# Text: Prednisolone (active GC) administration to rats induces a variety of acute physiological effects including an increase in liver tyrosine amino transferase, increase in serum free fatty acids, increase in liver glycogen levels, hyperglycemia, decrease in osteocalcin, among others. Osteocalcin is of particular interest since a decrease in this hormone leads to decreased bone formation, increasing the potential for osteoporosis. Administration of an 11β-HSD-1 inhibitor would be expected to reduce local reactivation of prednisolone from prednisone in the bone or relevant tissue, and thereby reduce loss of osteocalin levels. […] Prednisone is reactivated, however, to prednisolone in the liver, bone and other tissues where 11β-HSD-1 is expressed. By blocking this reactivation through the use of an 11β-HSD-1 inhibitor, the exposure of active glucocorticoid in bone would be minimized. […] To validate this hypothesis, effects of the 11β-HSD-1 inhibitor (compound A) on prednisolone-induced osteocalcin reduction was evaluated in rats using two separate protocols as indicated in the Table 8 below.
# In Study A, rats were pre-dosed with Compound A at 30 mg/kg 1 hour prior to administration with the active glucocorticoid, prednisolone, at 10 mg/kg, po. At 2 and 4 hours after dosing prednisolone, rats were sacrificed, and blood evaluated for levels of osteocalcin.
# [4] = test system: markers of bone resorption; settings: bone samples, healthy human volunteers, orally dosed; cited from earlier work
# insulin sensitivity = settings: humans; cited from earlier work
# [5] = test system: inflammation, tissue destruction, bone erosion; settings: animal models of RA; cited from earlier work
# plasma osteocalcin [6] = assay: Study B: prednisone-induced osteocalcin reduction in rats; format: in vivo; settings: vehicle pre-treatment, prednisone 10 mg/kg po, 4 hours later
# Text: Prednisolone (active GC) administration to rats induces a variety of acute physiological effects including an increase in liver tyrosine amino transferase, increase in serum free fatty acids, increase in liver glycogen levels, hyperglycemia, decrease in osteocalcin, among others. Osteocalcin is of particular interest since a decrease in this hormone leads to decreased bone formation, increasing the potential for osteoporosis. Administration of an 11β-HSD-1 inhibitor would be expected to reduce local reactivation of prednisolone from prednisone in the bone or relevant tissue, and thereby reduce loss of osteocalin levels. […] Prednisone is reactivated, however, to prednisolone in the liver, bone and other tissues where 11β-HSD-1 is expressed. By blocking this reactivation through the use of an 11β-HSD-1 inhibitor, the exposure of active glucocorticoid in bone would be minimized. This example would pertain to normal older individuals as well where cortisol levels increase with age, and likely contribute to age-dependent osteoporosis. This would be an acute study design. To validate this hypothesis, effects of the 11β-HSD-1 inhibitor (compound A) on prednisolone-induced osteocalcin reduction was evaluated in rats using two separate protocols as indicated in the Table 8 below.
# [7] = prednisolone 0.5 mg/kg p.o. daily 28 days
# [8] = prednisolone 5 mg/kg, p < 0.05 vs. (−) inhibitor
# [9] = prednisolone 0.5 mg/kg, p < 0.05 vs. vehicle control
smiles,measurement,setting,value
"CC(C)(Oc1ccc(F)cc1Cl)C(=O)NC1C2CC3CC1CC(S(C)(=O)=O)(C3)C2 (stereo not shown) [Compound B, 2-(2-chloro-4-fluorophenoxy)-2-methyl-N-[(E)-5-(methylsulfonyl)-2-adamantyl]propanamide]","% Inhibition of P1NP, (+) Inhibitor",[1]; [7],25%
same,"% Inhibition of P1NP, (+) Inhibitor",[1]; prednisolone […] p.o. daily 28 days,28%
same,"% Inhibition of Osteocalcin, (+) Inhibitor",Osteocalcin; prednisolone 0.5 mg/kg,18%
same,"% Inhibition of Osteocalcin, (+) Inhibitor",Osteocalcin; [8],28%*
same,"% Inhibition of TNFα, (+) Inhibitor",TNFα; prednisolone 0.5 mg/kg,80%
same,"% Inhibition of TNFα, (+) Inhibitor",TNFα; prednisolone 5 mg/kg,98%
same,"% Inhibition of TNFα, (+) Inhibitor",TNFα; prednisolone […],94%
same,"% Inhibition of MAR, (+) Inhibitor",[2]; prednisolone 0.5 mg/kg,9%
same,"% Increase in BFR/BV, (+) Inhibitor",[2]; [9],47%^#
same,"% Increase in dLS/BS, (+) Inhibitor",[2]; [9],22%^#
same,"% Inhibition of MAR, (+) Inhibitor",[2]; prednisolone 5 mg/kg,23%
same,"% Increase in BFR/BV, (+) Inhibitor",[2]; [8],30%*
same,"% Increase in dLS/BS, (+) Inhibitor","[2]; prednisolone 5 mg/kg, p < 0.05 vs. vehicle control",46%^#
"C[C@]12C=CC(=O)C=C1CC[C@@H]1[C@@H]2[C@@H](O)C[C@@]2(C)[C@H]1CC[C@]2(O)C(=O)CO [Prednisolone, prednisolone, reference compound]",plasma osteocalcin after prednisolone,plasma osteocalcin [3],significant reductions in plasma osteocalcin
same,"% Inhibition of P1NP, (−) Inhibitor",[1]; [7],33%
same,"% Inhibition of P1NP, (−) Inhibitor",[1]; prednisolone 5 mg/kg p.o. daily 28 days,51%
same,"% Inhibition of Osteocalcin, (−) Inhibitor",Osteocalcin; prednisolone 0.5 mg/kg,10%
same,"% Inhibition of Osteocalcin, (−) Inhibitor",Osteocalcin; prednisolone 5 mg/kg,45%
same,"% Inhibition of TNFα, (−) Inhibitor",TNFα; prednisolone 0.5 mg/kg,80%
same,"% Inhibition of TNFα, (−) Inhibitor",TNFα; prednisolone 5 mg/kg,98%
same,"% Inhibition of TNFα, (−) Inhibitor",TNFα; prednisolone […],95%
same,"% Increase in dLS/BS, (−) Inhibitor",[2]; prednisolone 0.5 mg/kg,No Increase
same,"% Inhibition of BFR/BV, (−) Inhibitor",[2]; prednisolone 0.5 mg/kg,No Inhibition
same,"% Inhibition of MAR, (−) Inhibitor",[2]; prednisolone 0.5 mg/kg,33%
same,"% Increase in dLS/BS, (−) Inhibitor",[2]; prednisolone 5 mg/kg,No Increase
same,"% Inhibition of BFR/BV, (−) Inhibitor",[2]; prednisolone 5 mg/kg,27%
same,"% Inhibition of MAR, (−) Inhibitor",[2]; prednisolone 5 mg/kg,52%
CC1(C)[C@@H](OC(=O)CCC(=O)O)CC[C@]2(C)[C@H]3C(=O)C=C4[C@@H]5C[C@@](C)(C(=O)O)CC[C@]5(C)CC[C@@]4(C)[C@]3(C)CC[C@@H]12 [carbenoxolone],markers of bone resorption,[4],significant decrease in markers of bone resorption
same,insulin sensitivity,insulin sensitivity,improves insulin sensitivity
CC1(C)[C@@H](O)CC[C@]2(C)[C@H]3C(=O)C=C4[C@@H]5C[C@@](C)(C(=O)O)CC[C@]5(C)CC[C@@]4(C)[C@]3(C)CC[C@@H]12 [glycyrrhetinic acid],"effect on inflammation, tissue destruction and bone erosion",[5],reduced inflammation and tissue destruction as well as bone erosion
C[C@]12C=CC(=O)C=C1CC[C@@H]1[C@@H]2C(=O)C[C@@]2(C)[C@H]1CC[C@]2(O)C(=O)CO [prednisone],plasma osteocalcin after prednisone challenge,plasma osteocalcin [6],significant reduction in plasma osteocalcin
